From ChEMBL document CHEMBL1155782 (Bioorg Med Chem, 2008) come the findings set out here.

Some targets named below: Carbonic anhydrase 13 (Mus musculus, UniProt Q9D6N1); Carbonic anhydrase 9 (Homo sapiens, UniProt Q16790); Carbonic anhydrase 12 (Homo sapiens, UniProt O43570); Carbonic anhydrase 14 (Homo sapiens, UniProt Q9ULX7); Carbonic anhydrase 3 (Homo sapiens, UniProt P07451); Carbonic anhydrase 4 (Homo sapiens, UniProt P22748); Carbonic anhydrase 6 (Homo sapiens, UniProt P23280); Carbonic anhydrase 7 (Homo sapiens, UniProt P43166).

Test [1] has as its target Carbonic anhydrase 5A, mitochondrial (Homo sapiens, UniProt P35218).
Description: Inhibition of human carbonic anhydrase 5A by stopped-flow CO2 hydration assay
For test [2], the target named is Carbonic anhydrase 5B, mitochondrial (Homo sapiens, UniProt Q9Y2D0).
Chain of Carbonic anhydrase 5B, mitochondrial (Q9Y2D0 whole entry): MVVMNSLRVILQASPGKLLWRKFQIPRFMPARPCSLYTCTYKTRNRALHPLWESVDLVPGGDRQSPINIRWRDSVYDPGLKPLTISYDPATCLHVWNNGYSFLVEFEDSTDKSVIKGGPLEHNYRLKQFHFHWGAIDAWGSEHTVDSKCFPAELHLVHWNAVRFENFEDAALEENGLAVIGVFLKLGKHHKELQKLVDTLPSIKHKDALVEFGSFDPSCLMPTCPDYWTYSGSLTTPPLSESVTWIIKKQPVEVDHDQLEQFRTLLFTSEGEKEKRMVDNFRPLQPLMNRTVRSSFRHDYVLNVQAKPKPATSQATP
Description: Inhibition of human carbonic anhydrase 5B by stopped-flow CO2 hydration assay

Chain of Carbonic anhydrase 3 (P07451 whole entry): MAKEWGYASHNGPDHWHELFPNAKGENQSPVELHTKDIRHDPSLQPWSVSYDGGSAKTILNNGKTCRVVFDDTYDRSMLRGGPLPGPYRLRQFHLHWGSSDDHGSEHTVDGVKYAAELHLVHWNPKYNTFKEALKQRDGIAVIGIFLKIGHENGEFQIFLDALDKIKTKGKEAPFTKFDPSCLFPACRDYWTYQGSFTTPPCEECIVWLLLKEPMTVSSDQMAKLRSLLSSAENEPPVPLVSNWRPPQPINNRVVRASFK
Chain of Carbonic anhydrase 13 (Q9D6N1 whole entry): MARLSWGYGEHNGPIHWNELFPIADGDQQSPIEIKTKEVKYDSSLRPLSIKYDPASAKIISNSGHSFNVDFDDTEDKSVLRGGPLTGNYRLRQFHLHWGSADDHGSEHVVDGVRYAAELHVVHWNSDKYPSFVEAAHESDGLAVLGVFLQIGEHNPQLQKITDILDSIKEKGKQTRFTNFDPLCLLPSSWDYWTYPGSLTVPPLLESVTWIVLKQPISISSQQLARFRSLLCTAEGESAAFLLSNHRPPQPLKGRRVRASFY
Chain of Carbonic anhydrase 6 (P23280 whole entry): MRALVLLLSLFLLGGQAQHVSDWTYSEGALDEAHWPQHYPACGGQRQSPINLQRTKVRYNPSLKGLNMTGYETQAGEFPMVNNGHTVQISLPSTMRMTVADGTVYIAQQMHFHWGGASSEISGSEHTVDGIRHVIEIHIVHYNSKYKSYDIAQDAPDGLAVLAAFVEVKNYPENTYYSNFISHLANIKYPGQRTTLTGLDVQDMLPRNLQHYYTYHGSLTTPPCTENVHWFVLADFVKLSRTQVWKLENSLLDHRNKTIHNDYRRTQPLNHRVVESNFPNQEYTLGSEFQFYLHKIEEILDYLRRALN
Chain of Carbonic anhydrase 7 (P43166 whole entry): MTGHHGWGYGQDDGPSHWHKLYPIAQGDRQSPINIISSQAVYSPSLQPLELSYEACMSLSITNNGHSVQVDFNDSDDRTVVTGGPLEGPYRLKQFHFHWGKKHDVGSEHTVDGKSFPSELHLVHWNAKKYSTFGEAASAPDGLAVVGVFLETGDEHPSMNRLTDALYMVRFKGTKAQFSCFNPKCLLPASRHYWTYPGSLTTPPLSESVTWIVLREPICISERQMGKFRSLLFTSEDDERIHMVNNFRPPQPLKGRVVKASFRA
Chain of Carbonic anhydrase 4 (P22748 whole entry): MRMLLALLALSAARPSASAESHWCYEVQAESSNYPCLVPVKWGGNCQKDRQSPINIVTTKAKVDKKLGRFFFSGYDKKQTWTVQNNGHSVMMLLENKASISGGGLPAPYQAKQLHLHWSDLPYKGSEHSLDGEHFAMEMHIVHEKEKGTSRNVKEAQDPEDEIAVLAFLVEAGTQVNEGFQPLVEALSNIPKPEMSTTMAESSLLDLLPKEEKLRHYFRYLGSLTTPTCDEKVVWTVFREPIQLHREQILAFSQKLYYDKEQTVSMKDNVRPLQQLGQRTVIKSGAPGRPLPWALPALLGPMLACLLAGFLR
Chain of Carbonic anhydrase 14 (Q9ULX7 whole entry): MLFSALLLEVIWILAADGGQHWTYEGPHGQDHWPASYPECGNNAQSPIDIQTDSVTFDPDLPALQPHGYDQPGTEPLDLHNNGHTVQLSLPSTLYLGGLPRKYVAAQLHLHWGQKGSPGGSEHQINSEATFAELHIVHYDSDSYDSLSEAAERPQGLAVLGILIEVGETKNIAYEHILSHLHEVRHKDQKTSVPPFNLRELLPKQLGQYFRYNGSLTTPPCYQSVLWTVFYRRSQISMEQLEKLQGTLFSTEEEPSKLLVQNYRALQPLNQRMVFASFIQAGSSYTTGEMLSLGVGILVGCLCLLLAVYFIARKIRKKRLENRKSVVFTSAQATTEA
Chain of Carbonic anhydrase 12 (O43570 whole entry): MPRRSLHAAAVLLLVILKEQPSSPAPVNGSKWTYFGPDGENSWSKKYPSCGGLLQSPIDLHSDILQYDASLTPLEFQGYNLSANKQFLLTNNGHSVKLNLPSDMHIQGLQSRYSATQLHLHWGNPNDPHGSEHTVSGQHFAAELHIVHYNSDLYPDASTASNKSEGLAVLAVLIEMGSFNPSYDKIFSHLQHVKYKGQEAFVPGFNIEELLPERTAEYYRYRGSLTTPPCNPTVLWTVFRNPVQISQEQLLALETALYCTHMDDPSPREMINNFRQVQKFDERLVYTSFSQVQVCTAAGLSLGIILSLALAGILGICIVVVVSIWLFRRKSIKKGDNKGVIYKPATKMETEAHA
Chain of Carbonic anhydrase 5A, mitochondrial (P35218 whole entry): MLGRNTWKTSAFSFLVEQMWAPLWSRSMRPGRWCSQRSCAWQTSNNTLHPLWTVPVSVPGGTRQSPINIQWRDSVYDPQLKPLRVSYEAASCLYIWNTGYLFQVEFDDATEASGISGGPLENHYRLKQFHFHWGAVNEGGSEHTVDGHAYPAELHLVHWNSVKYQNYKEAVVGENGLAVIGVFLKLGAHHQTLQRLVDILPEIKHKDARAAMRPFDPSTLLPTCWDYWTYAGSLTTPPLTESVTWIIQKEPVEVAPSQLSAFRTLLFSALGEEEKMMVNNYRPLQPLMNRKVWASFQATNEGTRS
Description for Carbonic anhydrase 12: Inhibition of human carbonic anhydrase 12 catalytic domain by stopped-flow CO2 hydration assay
Description for Carbonic anhydrase 13: Inhibition of mouse carbonic anhydrase 13 by stopped-flow CO2 hydration assay
Description for Carbonic anhydrase 14: Inhibition of human carbonic anhydrase 14 by stopped-flow CO2 hydration assay
Description for Carbonic anhydrase 3: Inhibition of human carbonic anhydrase 3 by stopped-flow CO2 hydration assay
Description for Carbonic anhydrase 4: Inhibition of human carbonic anhydrase 4 by stopped-flow CO2 hydration assay
Description for Carbonic anhydrase 6: Inhibition of human carbonic anhydrase 6 by stopped-flow CO2 hydration assay
Description for Carbonic anhydrase 7: Inhibition of human carbonic anhydrase 7 by stopped-flow CO2 hydration assay
Description for Carbonic anhydrase 9: Inhibition of human carbonic anhydrase 9 catalytic domain by stopped-flow CO2 hydration assay

`Oc1cc(F)ccc1F`: the Ki (commonly a measure of affinity in units of concentration, obtained from inhibition or displacement) on Carbonic anhydrase 13 came out at 69.5 µM; at Carbonic anhydrase 9, 68.7 µM; on Carbonic anhydrase 12 it was 598 µM; at Carbonic anhydrase 14, 34 µM; at Carbonic anhydrase 3, 10.8 µM; at Carbonic anhydrase 4, 426 µM. The Ki in test [1] was determined as 12 µM; in [2], 51.2 µM; at Carbonic anhydrase 6, 90.6 µM; at Carbonic anhydrase 7, 554 µM.

With `N#Cc1ccc(O)cc1` [4-CYANOPHENOL], the Ki stood at 45 µM at Carbonic anhydrase 13; 56 µM at Carbonic anhydrase 9; 634 µM at Carbonic anhydrase 4; 520 µM in test [1]; 557 µM in test [2]; 777 µM at Carbonic anhydrase 7.

Regarding `CC(=O)Nc1ccc(O)cc1` [ACETAMINOPHEN], the Ki on Carbonic anhydrase 13 was determined as 30.3 µM; on Carbonic anhydrase 9 it was 70.7 µM; on Carbonic anhydrase 12, 4.1 µM; on Carbonic anhydrase 14, 10.6 µM; at Carbonic anhydrase 3, 7.1 µM; on Carbonic anhydrase 4 it was 11.4 µM. The Ki in test [1] was found to be 802 µM; in test [2] it was 296 µM; on Carbonic anhydrase 6, 658 µM.

In the case of `Oc1ccccc1O` [CATECHOL], the Ki on Carbonic anhydrase 13 came to 12.2 µM; at Carbonic anhydrase 9 it was 115 µM; at Carbonic anhydrase 12, 8.9 µM; at Carbonic anhydrase 14 it was 48.9 µM; at Carbonic anhydrase 3, 13 µM; in [1], 55.1 µM. In addition, the Ki in [2] was 4.2 µM; on Carbonic anhydrase 6 it was 606 µM; on Carbonic anhydrase 7 it was 714 µM.

For `Oc1ccc(O)cc1` [HYDROQUINONE], the Ki stood at 74.3 µM on Carbonic anhydrase 13; 32.5 µM at Carbonic anhydrase 9; 7.8 µM at Carbonic anhydrase 12; 42 µM on Carbonic anhydrase 14; 8.2 µM at Carbonic anhydrase 3; 14.1 µM in [1]. Besides, the Ki in test [2] came to 12.5 µM; on Carbonic anhydrase 6, 521 µM; at Carbonic anhydrase 7, 883 µM.

Turning to `O=C(O)c1ccc(O)cc1` [PARABEN], the Ki on Carbonic anhydrase 13 was 86 µM; on Carbonic anhydrase 9 it was 118 µM; on Carbonic anhydrase 12 it was 4.8 µM; at Carbonic anhydrase 14 it was 34.3 µM; on Carbonic anhydrase 3, 696 µM; at Carbonic anhydrase 4, 809 µM. Besides, the inhibition constant Ki in test [1] worked out at 9.2 µM; at Carbonic anhydrase 6, 11.4 µM; at Carbonic anhydrase 7 it was 716 µM.

Take `Oc1cccc(O)c1` [RESORCINOL]: the Ki on Carbonic anhydrase 13 was 62.6 µM; at Carbonic anhydrase 9, 69.7 µM; at Carbonic anhydrase 12 it was 7.5 µM; at Carbonic anhydrase 14, 10.7 µM; on Carbonic anhydrase 3, 605 µM; at Carbonic anhydrase 4 it was 570 µM. Also, the Ki stood at 8.7 µM in [1], 7.1 µM in test [2], 550 µM at Carbonic anhydrase 6 and 644 µM on Carbonic anhydrase 7.
